{"source": "patent US8951972B2", "about": "“FGFR1 extracellular domain combination therapies for lung cancer” (Five Prime Therapeutics, Inc., priority 2010, dated 2015)", "key": {"[1]": {"system": "H520 Non-Small Cell Lung Cancer (NSCLC) Xenograft", "experiment": "H520 non-small cell lung cancer (NSCLC) xenograft model, tumor volume", "type": "in vivo, SCID mice", "experimental": "Dosing for all groups began one day post tumor implantation.\nIn combination groups, FGFR1-ECD.339-Fc and pemetrexed were administered on the same schedule as when given as single agents, and were administered concurrently on days 1, 4, 8, and 11."}, "[2]": {"system": "Colo205 Colon Cancer Xenograft", "experiment": "Colo205 colon cancer xenograft model, tumor volume", "type": "in vivo, SCID mice", "experimental": "Cells were resuspended in a solution of 50%/v PBS and 50%/v Matrigel at a concentration of 25 million cells/ml. Resuspended cells were kept on ice until implantation. […] On day 0, 2.5 million cells/100 μl were implanted over the right flank of the each mouse using a 27G1/2 needle. One day after tumor implantation, the mice were randomized according to the body weight.\nLeucovorin (LV) was also purchased from Sigma-Aldrich (Cat. No. F8259) and was formulated in 0.9% Sodium Chloride Injection USP at 2 mg/ml (for 10 mg/kg dosing), to 4 mg/ml (for 20 mg/kg dosing), and to 6 mg/ml (for 30 mg/kg dosing).\nIn the first experiment, FGFR1-ECD.339-Fc was combined with three different concentrations of 5-FU/leucovorin. In the second experiment, FGFR1-ECD.339-Fc was combined with either bevacizumab or 5-FU/leucovorin, or both. The double line separates the groups from the two experiments.\nWhen the average tumor volume in a group was near 600 mm^3, the mice in that group were euthanized by isoflurane inhalation and cervical dislocation.\nThe order of effectiveness of the various treatments was evaluated two ways: 1) the average tumor volume in each group on a single time point (day); and 2) time for the average tumor volume in each group to reach 500 mm^3 (see the dotted line in FIG. 11E).\nLeucovorin was also purchased from Sigma-Aldrich (Cat. No. F8259) and was formulated in 0.9% Sodium Chloride Injection USP at 2 mg/ml (for 10 mg/kg dosing).\n5-FU and leucovorin were each administered i.p. at 10 mg/kg daily for five days. Oxaliplatin was administered i.p. at 5 mg/kg, 10 mg/kg, or 15 mg/kg in one dose on day 1.\nMice were euthanized on day 28 by isoflurane inhalation and cervical dislocation."}, "[3]": {"conditions": "day 49, FGFR1-ECD.339-Fc alone 15 mg/kg i.p. 2x/wk x 6 wks"}, "[4]": {"conditions": "day 24, FGFR1-ECD.339-Fc 15 mg/kg i.p. 3x/wk x 4 wks, bevacizumab 1 mg/kg i.p. 2x/wk x 4 wks, 5-Fu/LV 10 mg/kg each i.p. q.d. x 5 days"}}}
{"substance": "FGFR1-ECD.339-Fc: human FGFR1 extracellular domain ending at amino acid 339 fused to an Fc; SEQ ID NO: 6 (mature form)", "values": [{"measurement": "Tumor inhibition over the course of the study (mean tumor volume)", "setting": "[1]; FIGS. 2A, 3A, 4A, FGFR1-ECD.339-Fc 15 mg/kg, pemetrexed alone at the low or medium dose (62.5 or 125 mg/kg), combination dosed concurrently", "value": "resulted in tumor inhibition"}, {"measurement": "Fractional tumor volume (FTV), each treatment alone", "setting": "[1]; day 49, FGFR1-ECD.339-Fc 15 mg/kg, pemetrexed 62.5 mg/kg", "value": 0.68}, {"measurement": "Fractional tumor volume (FTV), each treatment alone", "setting": "[1]; day 49, FGFR1-ECD.339-Fc 15 mg/kg, pemetrexed 125 mg/kg", "value": 0.68}, {"measurement": "Fractional tumor volume (FTV), each treatment alone", "setting": "[1]; day 49, FGFR1-ECD.339-Fc 15 mg/kg, pemetrexed 250 mg/kg", "value": 0.68}, {"measurement": "Mean Tumor volume mm^3(±SD)", "setting": "[1]; [3]", "value": "630.4 (±461.5) mm^3"}, {"measurement": "Tumor growth inhibition (%)", "setting": "[1]; [3]", "value": 31, "unit": "%"}, {"measurement": "Fractional tumor volume (FTV), each treatment alone", "setting": "[2]; Day 16, FGFR1-ECD.339-Fc 15 mg/kg i.p. 3x/wk x 4 wks, 5-FU/LV 10 mg/kg each i.p. q.d. x 5 days", "value": 0.76}, {"measurement": "Fractional tumor volume (FTV), each treatment alone", "setting": "[2]; Day 16, FGFR1-ECD.339-Fc 15 mg/kg i.p. 3x/wk x 4 wks, 5-FU/LV 20 mg/kg each i.p. q.d. x 5 days", "value": 0.76}, {"measurement": "Fractional tumor volume (FTV), each treatment alone", "setting": "[2]; Day 16, FGFR1-ECD.339-Fc 15 mg/kg i.p. 3x/wk x 4 wks, 5-FU/LV 30 mg/kg each i.p. q.d. x 5 days", "value": 0.76}, {"measurement": "Fractional tumor volume (FTV), each treatment alone", "setting": "[2]; Day 24, FGFR1-ECD.339-Fc 15 mg/kg i.p. 3x/wk x 4 wks, bevacizumab 1 mg/kg i.p. 2x/wk x 4 wks, 5-Fu/LV 10 mg/kg each q.d. x 5 days", "value": 0.73}, {"measurement": "Order of antitumor effect of the treatment groups", "setting": "[2]; by average tumor volume on a single day and by time for average tumor volume to reach 500 mm^3 (FIG. 11E), value gives the next-ranked group", "value": ">vehicle"}, {"measurement": "Fractional tumor volume (FTV), each treatment alone", "setting": "[2]; day 17, FGFR1-ECD.339-Fc 15 mg/kg i.p. 2x/wk x 4 wks, 5-FU and leucovorin 10 mg/kg each i.p. daily x 5 days, oxaliplatin 5 mg/kg i.p. one dose day 1", "value": 0.77}, {"measurement": "Fractional tumor volume (FTV), each treatment alone", "setting": "[2]; day 17, FGFR1-ECD.339-Fc 15 mg/kg i.p. 2x/wk x 4 wks, 5-FU and leucovorin 10 mg/kg each i.p. daily x 5 days, oxaliplatin 10 mg/kg i.p. one dose day 1", "value": 0.77}, {"measurement": "Mean Tumor volume mm^3(±SD)", "setting": "[2]; [4]", "value": "509 (±144) mm^3"}, {"measurement": "Tumor growth inhibition (%)", "setting": "[2]; [4]", "value": 26, "unit": "%"}]}
